Test results published in patent US20130005759A1, “SMALL MOLECULE MODIFIERS OF MICRORNA MIR-122” (North Carolina State University, priority 2010, published 2013).

Columns and labels:
miR-122 [1] = assay: quantitative RT PCR of mature miR-122 in Huh7 cells; type: cell-based, human; settings: Huh7, 10 μM, 48 hours
Procedure: The activity of the small molecule modifiers was analyzed by quantitative RT PCR in order to measure their direct effects on miR-122 expression levels in Huh7 cells. […] All experiments were conducted in triplicate, and the data was normalized to a DMSO control.
Each treatment was conducted in triplicate to ensure statistical validity. Cells were then incubated at 37° C. for 48 hours (DMEM, 5% CO2). The media was removed, and cells were washed with PBS buffer (2×2 mL, pH 7.4) followed by RNA isolation with the mirPremier™ microRNA Isolation Kit (Aldrich). The RNA was quantified using a Nanodrop ND-1000 spectrophotometer and 10 ng of each RNA sample was reverse transcribed using the TaqMan™ microRNA Reverse Transcription Kit (Applied Biosystems) in conjunction with either the miR-122 or miR-21 TaqMan™ RT primer (16° C., 30 min; 42° C., 30 min; 85° C., 5 min). Quantitative Real Time PCR was conducted with a TaqMan™ 2× Universal PCR Master Mix and the appropriate TaqMan™ miRNA assay (Applied Biosystems) on a BioRad MyiQ RT-PCR thermocycler (1.3 μL RT PCR product; 95° C., 10 min; followed by 40 cycles of 95° C., 15 s; 60° C. 60 s). Threshold cycles were used to determine miRNA copy numbers, and the levels of miR-122 and miR-21 were compared via determination of threshold cycle (Ct) and conversion to copy number (copy number=10[(Ct−37.4)/−3.3]).^17 The data was then normalized to the DMSO control. The samples were also analyzed by real time PCR for the presence of pri-miR-122 transcript using the previously described primers (5′ […] 3′ (SEQ ID NO:5) and 5′ […] 3′ (SEQ ID NO:6); IDT DNA) and iQ SYBR Green Supermix for the real time PCR (95° C., 3 min; followed by 40 cycles of 95° C., 15 s; 60° C. 60 s).^14

HepG2 cells = assay: CellTiter-Glo cell viability in HepG2 cells; type: cell-based; settings: HepG2, 10 μM, 48 hours
miR-21 = miR-21 luciferase reporter assay in HeLa-miR-21-Luc cells; type: cell-based; settings: 10 μM, 48 hours
Procedure: Using the previously described HeLa-miR-21-Luc cell line (a stably transfected line harboring a miR-21 binding sequence in the 3′ UTR of a firefly luciferase gene),(9) cells were grown to 80% confluency (DMEM) and treated with either DMSO, the previously reported miR-21 inhibitor, or compounds 1 and 2 at 10 μM (1% DMSO final concentration). The cells were incubated for 48 hours at 37° C. (5% CO2) and then assayed with a Bright-Glo Luciferase Kit (Promega) and analyzed using a Wallac VICTOR^3V luminometer with a measurement time of 1 s and a delay time of 2 s (FIG. 4).

caspase-3 and -7 = assay: Caspase-Glo 3/7 assay in HepG2 cells; type: cell-based; settings: HepG2, 10 μM, 48 hours
Excerpt: (§1) This enhanced caspase activity led to a reduced cell viability of ˜20% (CellTiter-Glo, Promega) (FIGS. 8A and B), exceeding previously reported reductions in cell viability due to lentiviral over-expression of miR-122 in HepG2 cells.^13 An increased caspase 3/7 level is observed in HepG2 cells due to activation of the pro-apoptic miR-122 (FIG. 8A). This increase is more pronounced in HepG2 than Huh7 cells, due to the different basal miR-122 levels in both cell lines. […] Thus, a small molecule activator of miR-122, like compound 3, has therapeutic relevance towards the selective treatment of HCC.
Both HepG2 and Huh7 cells were passaged into a 96-well plate and grown to 70% confluency. The media was then removed and replaced with standard growth media supplemented with 3 (10 μM) or a DMSO control (1% final DMSO concentration in all wells) and incubated for 48 hours at 37° C. All incubations were conducted in triplicate to ensure statistical validity. The media was removed and cells were assayed with the Caspase-Glo 3/7 (Promega) kit according to the manufacturers directions and luminescence was measured using a Wallac VICTOR^3V luminometer with a measurement time of 1 s and a delay time of 2 s.

Huh7 cells = assay: CellTiter-Glo cell viability in Huh7 cells; type: cell-based, human; settings: Huh7, exposure to compound
Excerpt: as §1
HepG2 and Huh7 cells were passaged into a 96-well plate and grown to 60% confluency. The media was then removed and replaced with standard growth media supplemented with increasing concentrations of the miR-122 small molecule modifiers (0-20 μM; 1% final DMSO concentration) and incubated for 48 hours at 37° C. Cellular viability was then assessed using a Cell-Titer Glo Assay (Promega) according to the manufacturers directions and luminescence was measured using a Wallac VICTOR^3V luminometer with a measurement time of 1 s and a delay time of 2 s.

miR-122 [2] = assay: psiCHECK-miR122 dual luciferase reporter assay in Huh7 cells; type: cell-based, human
Excerpt: A miRNA small molecule modifier screen for miR-122 was developed based on the psiCHECK-2 (Promega) reporter plasmid (FIG. 9). This construct expresses both Renilla luciferase as well as firefly luciferase, allowing for the normalization of the signal to account for differential cellular viability and variability in transfection efficiency. The miR-122 target sequence was inserted downstream of the Renilla luciferase gene, between the PmeI and SgfI restriction sites. In another aspect of the invention, plasmids expressing luciferase or another reporter gene such as for example, fluorescent reporters (GFP and variants thereof, DsRed, etc.) or beta-galactosidase can be used to screen for small molecule modifiers of miR-122. The mi-122 target sequence may be upstream or downstream of the reporter gene. Multiple miR-122 target sites can also be inserted into or be present in the plasmid.
The presence of mature miR-122 will lead to a decrease in the Renilla luciferase signal (FIG. 1a). The ability to detect endogenous miR-122 was validated by transfecting the generated psiCHECK-miR122 construct into Huh7 and HeLa cells. After 48 hour incubation, the cells were assayed using a Dual Luciferase Assay Kit (Promega). In another embodiment, the cells can be incubated for about 24-96 hours. The Dual Luciferase Assay Kit provides a means to measure the amount of the luciferases by generating a luminescent signal. Using this assay the luminescence from the firefly luciferase reaction may be quenched while the luminescent reaction of Renilla luciferase can be activated. Other assays and procedures that can determine the amount of the one or more reporter genes or miR-122 expression, activity or function can be used. An example of another assay is Dual-Glo Assay (Promega).
The psiCHECK-miR122 vector was then employed in a small molecule screen in Huh7 cells to discover modifiers of miR-122 function. Other cells that express miR-122 such as HepG2 and Hep3B can be used in addition to or instead of Huh7 cells. An increase in the relative Renilla luciferase signal indicates a miR-122 inhibitor, while a reduction in the luciferase signal indicates a miR-122 activator. A genus of compounds that may have activity as modifiers of miR122 function are the Diversity Set II (1364 compounds) from the NCI Developmental Therapeutics Program was screened using Huh7 cells containing the psiCHECK-miR122 reporter. Cells were exposed to the small molecules and the relative luciferase signal was measured after 48 hours using a Dual Luciferase Assay Kit (Promega). In another embodiment the cells can be exposed to the small molecules for about 24-96 hours. As explained above, other assays and procedures that can determine the amount of the one or more reporter genes or miR-122 expression, activity or function can be used.
The analogs were screened for activity using the previously described miR-122 assay. All cells were treated with 10 μM of a compound and experiments were performed in triplicate to ensure statistical validity. The data was normalized to a 1% DMSO control and is reported in relative luciferase units (RLU). The standard deviation was calculated from three independent assays. Some analogs of miR-122 inhibitor compound 1 are:
Huh7 and HeLa cells were transfected at approximately 60% confluency with either the psiCHECK-Control plasmid (the original psiCHECK-2 plasmid containing no known miRNA binding site) or the psiCHECK-miR122 plasmid (0.5 μg) using X-tremGENE transfection reagent (3:2 reagent/DNA ratio; Roche) in Opti-Mem media (Invitrogen). All transfections were performed in triplicate for statistical analysis. The cells were incubated at 37° C. for 4 hours followed by the replacement of transfection media with standard DMEM growth media. After 48 hours of incubation the media was removed, cells were lysed and assayed with a Dual Luciferase Assay Kit (Promega) using a Wallac VICTOR^3V luminometer with a measurement time of 1 s and a delay time of 2 s. […]

CN(C)CCN1C(=O)c2cccc3cc(N)cc(c23)C1=O [Compound 3] was tested, and the “increase in miR-122 expression levels” value (miR-122 [1]) was 438%, the reduced cell viability (HepG2 cells) was about 20% and the “activity in miRNA-21 reporter (luciferase signal)” value (miR-21) was “No effect”. For the same compound, the “increase in the activity of caspase-3 and -7” value (caspase-3 and -7) was about 20 fold, the “cell viability (in words)” value (Huh7 cells) was “only slightly affected” and the IC50 (miR-122 [2]; Homo sapiens, Huh-7, Huh7, calculated from FIG. 5, read-out: IC50 (miR-122 activator, luciferase dose response)) was 370 ± 20 nM. For the same compound, the “reduction of the Renilla luciferase signal” value (miR-122 [2]; Huh7, psiCHECK-miR122, 10 μM) was 7 fold and the “relative luciferase units (RLU) normalized to a DMSO control” value (miR-122 [2]; Huh7, psiCHECK-miR122, 10 μM, mean ± SD of three independent assays) was 0.11±0.02 RLU.
